Tested on: 883617-216-R-J1-PDC tumor spheroids, viability
Test: Anticancer human tumor 883617-216-R-J1-PDC patient-derived bladder carcinoma cell line growth inhibition [PI3K]
Conditions: spheroids with HUVEC and MSC; for IC50: curve of first compound; for viability, T/C: stronger effect = lower value
Text: Combinatorial screen of targeted agents with the PI3K inhibitors inavolisib, alpelisib, duvelisib, and copanlisib in multi-cell type tumor spheroids
A high-throughput screen of multi-cell type tumor spheroids was designed to identify active combinations of targeted small molecules and PI3K pathway inhibitors. Complex spheroids include a stromal component modeled by human endothelial cells (HUVEC) and fibroblasts modeled by human mesenchymal stem cells (MSCs). The concentration ranges selected for each drug and investigational agent were based upon clinically achievable concentrations if the clinical Cmax of the agent was known.
Compounds. The drugs and investigational agents: inavolisib (NSC800729), alpelisib (NSC765974), duvelisib (NSC772469), copanlisib (NSC816437), ipatasertib (NSC767898), afuresertib (NSC778305), talazoparib (NSC767125), sapanisertib (NSC764658), selumetinib (NSC741078), tovorafenib (DAY101, NSC766906), vemurafenib (NSC761431), ravoxertinib (NSC781343), sotorasib (NSC818433), MRTX1133 (NSC 836407), abemaciclib (NSC 768073), palbociclib (NSC758247), venetoclax (NSC 766270), SY5609 (NSC837396), enzalutamide (NSC755605), and darolutamide (NSC825331), were obtained from the National Cancer Institute (NCI) Developmental Therapeutics Program Chemical Repository. The FDA-approved anticancer drug set is available from the NCI Developmental Therapeutics Program. […] The stock solutions were prepared in dimethyl sulfoxide (DMSO, Sigma-Aldrich, St. Louis, MO, cat. D2650) at 800-fold the tested concentration and stored at -70 degrees C prior to their use. All drugs and investigational agents were tested over a range starting from a high concentration at or near the clinical Cmax and decreasing in half-log increments. If the clinical Cmax for an agent had not been determined, the highest concentration tested was 10 microM.
Cell Culture. All cells were maintained in an incubator at 37 degrees C and 5% CO2 with 95% humidity. The PDC lines were cultured according to standard operating procedures established by the NCI PDMR (https://pdmr.cancer.gov/sops/default.htm). All PDCs were thawed and cultured in Matrigel-coated flasks prepared with a working solution of 1X Ham's F-12 nutrient mix, without supplementation (Invitrogen, Waltham, MA, cat. 11765054), 100 U/mL penicillin-streptomycin (Invitrogen, cat. 15140122), and 2.5% Matrigel (Corning Inc., Corning, NY, cat. 354248) for the first three passages. The 354836-022-R-J1-PDC, 475296-252-R-J1-PDC, and 997726-040-R-J2-PDC lines were cultured in 6A media, which includes advanced DMEM/F-12 (Thermo Fisher Scientific, cat. 12634028), 10 mM HEPES (Thermo Fisher Scientific, cat. 15630080), 1X GlutaMAX supplement (Thermo Fisher Scientific, cat. 35050061), 0.1 mg/mL primocin (InvivoGen, San Diego, CA, cat. ant-pm-2), 10% defined fetal bovine serum, heat inactivated (HyClone Laboratories Inc., Logan, UT, cat. SH30070.03HI), 50% L-WRN conditioned media (ATCC, cat. CRL-3276), 1.25 mM N-Acetyl-L-cysteine (Sigma-Aldrich, cat. A9165), 10 mM nicotinamide (Sigma-Aldrich, cat. N0636), 1X B-27 supplement (Thermo Fisher Scientific, cat. 17504044), 1X N-2 supplement (Thermo Fisher Scientific, cat. 17502048), and 10 microM Y-27632 dihydrochloride (Tocris Bioscience, Bristol, United Kingdom, cat. 1254). The 624824-186-R-J2-PDC line was cultured in 6C/Colon 1B media, which includes all 6A media components plus 50 ng/mL human EGF recombinant protein (Thermo Fisher Scientific, cat. PHG0311). […]

[1] = second compound 0.0316 µM, first compound 0.0316 µM
[2] = second compound 0.0316 µM, first compound 0.1 µM
[3] = second compound 0.0316 µM, first compound 0.316 µM
[4] = second compound 0.0316 µM, first compound 1 µM
[5] = second compound 0.0316 µM, first compound 3.16 µM
[6] = second compound 0.0316 µM, first compound 10 µM
[7] = second compound 0.1 µM, first compound 0.0316 µM
[8] = second compound 0.1 µM, first compound 0.1 µM
[9] = second compound 0.1 µM, first compound 0.316 µM
[10] = second compound 0.1 µM, first compound 1 µM
[11] = second compound 0.1 µM, first compound 3.16 µM
[12] = second compound 0.1 µM, first compound 10 µM
[13] = second compound 0.316 µM, first compound 0.0316 µM
[14] = second compound 0.316 µM, first compound 0.1 µM
[15] = second compound 0.316 µM, first compound 0.316 µM
[16] = second compound 0.316 µM, first compound 1 µM
[17] = second compound 0.316 µM, first compound 3.16 µM
[18] = second compound 0.316 µM, first compound 10 µM
[19] = second compound 1 µM, first compound 0.0316 µM
[20] = second compound 1 µM, first compound 0.1 µM
[21] = second compound 1 µM, first compound 0.316 µM
[22] = second compound 1 µM, first compound 1 µM
[23] = second compound 1 µM, first compound 3.16 µM
[24] = second compound 1 µM, first compound 10 µM
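Also: spheroids exposed to agents for 7 days before the viability read.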

`CNC(=O)c1ccc(N2C(=S)N(c3ccc(C#N)c(C(F)(F)F)c3)C(=O)C2(C)C)cc1F` + CC(Nc1ccc2c(c1)OCCn1cc(N3C(=O)OCC3C(F)F)nc1-2)C(N)=O was tested, and the IC50 (second compound 0.00316 µM) was over 10000 nM, the IC50 (second compound 0.01 µM) was over 10000 nM and the IC50 (second compound 0.0316 µM) was over 10000 nM. The IC50 (second compound 0.1 µM) was under 31.6 nM, the IC50 (second compound 0.316 µM) was under 31.6 nM and the IC50 (second compound 1 µM) was under 31.6 nM. It also gave a viability, T/C (second compound 0.00316 µM, first compound 0.0316 µM) of 94.3%, a viability, T/C (second compound 0.00316 µM, first compound 0.1 µM) of 78.7% and a viability, T/C (second compound 0.00316 µM, first compound 0.316 µM) of 97.5%. For the same molecule, the viability, T/C (second compound 0.00316 µM, first compound 1 µM) was 104%, the viability, T/C (second compound 0.00316 µM, first compound 3.16 µM) was 82.2% and the viability, T/C (second compound 0.00316 µM, first compound 10 µM) was 62.4%. The viability, T/C (second compound 0.01 µM, first compound 0.0316 µM) was 90.3%, the viability, T/C (second compound 0.01 µM, first compound 0.1 µM) was 74.3% and the viability, T/C (second compound 0.01 µM, first compound 0.316 µM) was 82.6%. It also gave a viability, T/C (second compound 0.01 µM, first compound 1 µM) of 97.5%, a viability, T/C (second compound 0.01 µM, first compound 3.16 µM) of 82.3% and a viability, T/C (second compound 0.01 µM, first compound 10 µM) of 63.4%. The viability, T/C [1] was 61.1%, the viability, T/C [2] was 62.5% and the viability, T/C [3] was 59%. For the same molecule, the viability, T/C [4] was 75.8%, the viability, T/C [5] was 79.8% and the viability, T/C [6] was 44.8%. For the same molecule, the viability, T/C [7] was 35.2%, the viability, T/C [8] was 39.1% and the viability, T/C [9] was 44.9%. The viability, T/C [10] was 41.9%, the viability, T/C [11] was 42.5% and the viability, T/C [12] was 27.9%. The viability, T/C [13] was 20.5%, the viability, T/C [14] was 23.9% and the viability, T/C [15] was 21.2%. For the same molecule, the viability, T/C [16] was 26.2%, the viability, T/C [17] was 48.8% and the viability, T/C [18] was 19.3%. For the same molecule, the viability, T/C [19] was 16.9%, the viability, T/C [20] was 11.8% and the viability, T/C [21] was 16.3%. It also gave a viability, T/C [22] of 19.5%, a viability, T/C [23] of 17.2% and a viability, T/C [24] of 12.3%.

With `Cn1nccc1Nc1nccc(-c2ccn(C(CO)c3ccc(Cl)c(F)c3)c(=O)c2)n1` (centres undefined) + Cc1nc(NC(=O)N2CCCC2C(N)=O)sc1-c1ccnc(C(C)(C)C(F)(F)F)c1 the IC50 (second compound 0.0316 µM) was 9040 nM, the IC50 (second compound 0.1 µM) was 2550 nM and the IC50 (second compound 0.316 µM) was under 31.6 nM. It also gave an IC50 (second compound 1 µM) of under 31.6 nM, an IC50 (second compound 3.16 µM) of under 31.6 nM and an IC50 (second compound 10 µM) of under 31.6 nM. It also gave a viability, T/C [1] of 82.5%, a viability, T/C [2] of 79.8% and a viability, T/C [3] of 68.7%. It also gave a viability, T/C [4] of 68.3%, a viability, T/C [5] of 68% and a viability, T/C [6] of 46.3%. For the same molecule, the viability, T/C [7] was 69.7%, the viability, T/C [8] was 72.5% and the viability, T/C [9] was 66.7%. The viability, T/C [10] was 56%, the viability, T/C [11] was 48.7% and the viability, T/C [12] was 33.2%. For the same molecule, the viability, T/C [13] was 47.3%, the viability, T/C [14] was 44.1% and the viability, T/C [15] was 43.9%. The viability, T/C [16] was 34.5%, the viability, T/C [17] was 30.8% and the viability, T/C [18] was 24.4%. For the same molecule, the viability, T/C [19] was 26.2%, the viability, T/C [20] was 25.7% and the viability, T/C [21] was 26.3%. It also gave a viability, T/C [22] of 20.5%, a viability, T/C [23] of 15.1% and a viability, T/C [24] of 12.8%. The viability, T/C (second compound 3.16 µM, first compound 0.0316 µM) was 13.3%, the viability, T/C (second compound 3.16 µM, first compound 0.1 µM) was 12.2% and the viability, T/C (second compound 3.16 µM, first compound 0.316 µM) was 9.5%. For the same molecule, the viability, T/C (second compound 3.16 µM, first compound 1 µM) was 9.97%, the viability, T/C (second compound 3.16 µM, first compound 3.16 µM) was 8.33% and the viability, T/C (second compound 3.16 µM, first compound 10 µM) was 7.21%. It also gave a viability, T/C (second compound 10 µM, first compound 0.0316 µM) of 5.74%, a viability, T/C (second compound 10 µM, first compound 0.1 µM) of 5.78% and a viability, T/C (second compound 10 µM, first compound 0.316 µM) of 4.59%. For the same molecule, the viability, T/C (second compound 10 µM, first compound 1 µM) was 4.62%, the viability, T/C (second compound 10 µM, first compound 3.16 µM) was 3.21% and the viability, T/C (second compound 10 µM, first compound 10 µM) was 1.26%.

— PubChem BioAssay AID1963973 (Molecular Pharmacology Branch, DTP, NCI, 2024)
